One data set has as its target CYP2C19 (Homo sapiens (Human), UniProt P33261). The experiment in a line: CYP enzyme inhibition, fluorescent substrate (CEC). The note with it: read-out: Cyp IC50 2C19; CYP2C19, substrate CEC. The method, then:
CYP (Cytochrome P450) enzymes are the major drug metabolizing enzymes present in the liver. The inhibition of CYP enzyme activity (IC50) for each of CYP1A2, CYP2C19, CYP2C9, CYP2D6, CYP3A4(BFC) and CYP3A4(BQ) is determined for compounds, where inhibition of metabolism of a known substrate leads to a decrease in the fluorescence of the metabolized product. The fluorescence of the product is monitored as a function of compound concentration.
Compounds are dissolved in dimethyl sulfoxide to a concentration of 100 mM. These are diluted 1 μL into 82 μL of acetonitrile. […] These are then serially diluted 1:1 (160 μL to 160 μL co-factor mix) for a total of 10 points. A 10 μL aliquot of this final mixture is dispensed into 384 well assay plates and incubated for 10 minutes at 37° C. […] Assay plates are incubated at 37° C. […] The signal versus compound concentration is used to determine the IC50. The enzymes and substrates for this assay are obtained from BD Biosciences.

Data set [1] is described as follows: Relative solubility by turbidity threshold concentration in aqueous buffers (pH 1.5, 4.5, 6.8, 7.4). It counts as physicochemical. The note with it: for turbidity threshold (L, M, H) 1.4: pH 1.4 [sic] (method: SGF pH 1.5); for turbidity threshold (L, M, H) 4.5: pH 4.5 (SIF); for turbidity threshold (L, M, H) 6.8: pH 6.8 (SIF); for turbidity threshold (L, M, H) 7.4: pH 7.4 (HEPES). The method, then: As an indication of relative solubility, the turbidity of compounds in aqueous solutions is assessed. To assess possible compound properties in different physiological compartments, such as stomach, intestine, and blood, a series of aqueous buffers with varying pH is used. Thus each compound is diluted into four different physiologically relevant buffers and solution turbidity is measured by spectrophotometry.
Compounds are dissolved at a concentration of 25 mM in dimethyl sulfoxide, then serially diluted 1:1 into a 96 well plate, diluting 10 times in pure dimethyl sulfoxide, with the final well of each row a dimethyl sulfoxide blank. In an assay plate, 99 μL of appropriate buffer is added to each well, and 1 μL of each sample dilution is added to the buffer, achieving a range of final total concentrations in aqueous solutions having different pH. The buffers used are Simulated Gastric Fluid (SGF-pH 1.5) 0.5M NaCl, pH 1.5; Simulated Intestinal fluid (SIF-pH 4.5 and pH 6.8) 0.05M NaH2PO4, pH 4.5 and 6.8; and Hepes Buffer (HEPES-pH 7.4) 10 mM HEPES, 150 mM NaCl, pH 7.4. Control compounds pyrene, estriol and propranolol HCl are also assessed. Plates are spun and then mixed for 1 minute, and the absorbance is read using a Tecan Safire II to read wavelengths in the visible range (490, 535, and 650 nm) at four locations per well, reflecting the degree of turbidity present. The average optical density for each wavelength in each well is graphed vs. compound concentration, and the concentration at which the curve crosses a threshold O.D. of 0.01 for each wavelength is reported as the endpoint turbidity assay result. The average of the three wavelengths is used to compare turbidity of compounds. Compounds are considered to have low solubility if the threshold concentration is <31.3 μM, moderate solubility if the threshold concentration is 31.3 μM to 250 μM, and high solubility if the threshold concentration is >250 μm.
The following table indicates the relative solubility (L=low, M=moderate, H=high) based on turbidity threshold concentration at each pH for exemplary compounds according to the invention as indicated: […]

For a further data set, the target named is c-Raf-1 (Homo sapiens, UniProt P04049). The experiment in a line: c-Raf-1 kinase activity biochemical assay (AlphaScreen, biotin-MEK1 phosphorylation). The method, then:
(§1) Compounds to be tested are diluted in dimethyl sulfoxide to a concentration of 0.1 mM. These are serially diluted 15 μL into 30 μL of dimethyl sulfoxide seven times in 96 well plates for a total of 8 dilution points, and for each dilution point 1 μL is added to a well of an assay plate. […] The reaction is started with addition of 10 μL of 200 μM ATP (i.e. final 100 μM ATP). After incubation of the kinase reaction for 45 minutes at room temperature, 5 μL/well of Stop Solution is added (25 mM Hepes pH 7.5, 100 mM EDTA, 0.01% BSA with donor beads (Streptavidin coated beads, Perkin Elmer), acceptor beads (Protein A coated, Perkin Elmer), and anti phosphor MEK1/2 antibody (CellSignal), each at final concentration 10 μg/mL). The plates are incubated for 3 hours at room temperature and read on Envision reader (Perkin Elmer). […] The signal vs. compound concentration is used to determine the IC50.
Background: In Alpha technology, singlet oxygen from a donor bead excites a nearby acceptor bead.

Data set [2] has as its target B-Raf (Homo sapiens (Human), UniProt P15056). Description: B-Raf kinase activity biochemical assay (AlphaScreen, biotin-MEK1 phosphorylation). Conditions: B-Raf. The method, then:
as §1

Data set [3] relates to B-Raf. The data set is described as above. The note with it: for Biochemical activity ratio B/V600E: ratio of IC50 B-Raf / B-Raf V600E; for Biochemical activity ratio B/C: ratio of IC50 B-Raf / c-Raf-1. Here is the method:
as §1

The target in the next data set is B-Raf V600E (Homo sapiens (Human), UniProt P15056, V600E). Description: B-Raf V600E kinase activity biochemical assay (AlphaScreen, biotin-MEK1 phosphorylation). Conditions: for IC50: B-Raf V600E; for Biochemical activity ratio V600E/C: ratio of IC50 B-Raf V600E / c-Raf-1. Here is the method:
as §1

10 compounds from US9617267B2, “Compounds and methods for kinase modulation, and indications therefor” (Plexxikon Inc., priority 2009, dated 2017) can be followed below.

Chain of c-Raf-1 (P04049 whole entry, looked up): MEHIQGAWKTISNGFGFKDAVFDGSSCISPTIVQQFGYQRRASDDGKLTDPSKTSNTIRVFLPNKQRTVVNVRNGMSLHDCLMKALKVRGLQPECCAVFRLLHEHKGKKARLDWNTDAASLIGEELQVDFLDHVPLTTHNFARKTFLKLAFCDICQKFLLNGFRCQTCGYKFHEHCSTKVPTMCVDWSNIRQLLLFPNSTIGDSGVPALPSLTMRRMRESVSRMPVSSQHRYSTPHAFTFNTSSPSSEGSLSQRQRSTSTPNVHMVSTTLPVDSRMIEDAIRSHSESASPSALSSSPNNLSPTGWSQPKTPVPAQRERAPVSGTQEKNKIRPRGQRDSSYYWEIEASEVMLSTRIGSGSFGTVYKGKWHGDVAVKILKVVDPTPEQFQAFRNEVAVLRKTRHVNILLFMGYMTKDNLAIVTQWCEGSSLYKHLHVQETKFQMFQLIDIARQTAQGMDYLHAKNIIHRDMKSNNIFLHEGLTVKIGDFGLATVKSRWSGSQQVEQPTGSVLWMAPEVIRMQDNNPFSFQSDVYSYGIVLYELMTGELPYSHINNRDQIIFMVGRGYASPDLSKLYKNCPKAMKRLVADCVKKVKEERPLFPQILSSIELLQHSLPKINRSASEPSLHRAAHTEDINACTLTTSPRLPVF
Chain of B-Raf V600E (P15056 whole entry V600E): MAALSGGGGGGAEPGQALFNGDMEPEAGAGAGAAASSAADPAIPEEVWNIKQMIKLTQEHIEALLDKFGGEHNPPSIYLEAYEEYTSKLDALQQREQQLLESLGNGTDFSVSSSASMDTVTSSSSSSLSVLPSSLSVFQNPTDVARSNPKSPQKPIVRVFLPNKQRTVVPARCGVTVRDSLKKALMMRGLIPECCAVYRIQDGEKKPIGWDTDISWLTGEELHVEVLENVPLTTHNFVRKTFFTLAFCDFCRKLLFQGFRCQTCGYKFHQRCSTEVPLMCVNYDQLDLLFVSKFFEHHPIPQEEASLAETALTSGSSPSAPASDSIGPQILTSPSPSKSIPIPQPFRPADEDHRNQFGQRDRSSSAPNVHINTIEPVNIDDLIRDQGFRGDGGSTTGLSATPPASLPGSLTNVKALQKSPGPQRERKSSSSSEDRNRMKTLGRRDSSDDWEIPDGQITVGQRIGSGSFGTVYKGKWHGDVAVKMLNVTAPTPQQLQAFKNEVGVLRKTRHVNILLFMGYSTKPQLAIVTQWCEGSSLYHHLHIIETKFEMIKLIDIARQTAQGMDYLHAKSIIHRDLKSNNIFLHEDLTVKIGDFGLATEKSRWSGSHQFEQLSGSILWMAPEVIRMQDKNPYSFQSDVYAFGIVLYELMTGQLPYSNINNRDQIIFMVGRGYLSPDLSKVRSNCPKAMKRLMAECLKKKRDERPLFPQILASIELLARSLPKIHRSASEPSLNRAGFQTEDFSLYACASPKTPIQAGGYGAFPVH
Chain of B-Raf (Homo sapiens (Human), UniProt P15056) (P15056 whole entry): as the sequence (P15056 whole entry V600E) above, with E600V counted along it
Chain of CYP2C19 (P33261 whole entry): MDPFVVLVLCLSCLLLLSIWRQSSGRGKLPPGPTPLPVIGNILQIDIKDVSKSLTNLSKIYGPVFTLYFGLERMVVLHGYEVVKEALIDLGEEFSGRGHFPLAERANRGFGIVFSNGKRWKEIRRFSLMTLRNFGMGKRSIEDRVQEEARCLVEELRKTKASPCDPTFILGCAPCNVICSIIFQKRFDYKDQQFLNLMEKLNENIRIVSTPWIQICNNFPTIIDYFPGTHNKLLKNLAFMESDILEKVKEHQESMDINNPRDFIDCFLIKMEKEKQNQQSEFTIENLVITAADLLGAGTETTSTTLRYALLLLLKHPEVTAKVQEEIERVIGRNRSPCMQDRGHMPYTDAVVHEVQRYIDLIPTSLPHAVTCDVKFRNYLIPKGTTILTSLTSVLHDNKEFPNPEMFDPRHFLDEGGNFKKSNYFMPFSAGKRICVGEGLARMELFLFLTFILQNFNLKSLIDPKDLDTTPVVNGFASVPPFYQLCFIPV

In the case of `CCCS(=O)(=O)Nc1ccc(F)c(C(=O)c2c[nH]c3nccc(C(F)(F)F)c23)c1F` [P-2015, Propane-1-sulfonic acid [2,4-difluoro-3-(4-trifluoromethyl-1H-pyrrolo[2,3-b]pyridine-3-carbonyl)-phenyl]-amide], the IC50 – broadly, the point on the concentration scale where inhibition reaches its midpoint – at CYP2C19 was over 10000 nM. For the same compound, in data set [1], the “turbidity threshold (L, M, H) 1.4” value is listed as “M (moderate solubility if the threshold concentration is 31.3 μM to 250 μM)”; the “turbidity threshold (L, M, H) 4.5” value is on record as “M (moderate solubility if the threshold concentration is 31.3 μM to 250 μM)”; the “turbidity threshold (L, M, H) 6.8” value is recorded as “M (moderate solubility if the threshold concentration is 31.3 μM to 250 μM)”; the “turbidity threshold (L, M, H) 7.4” value was “M (moderate solubility if the threshold concentration is 31.3 μM to 250 μM)”. Moreover, the 50% inhibitory concentration (IC50) at c-Raf-1 is under 0.1 µM.
Regarding `COc1ccc(S(=O)(=O)Nc2ccc(F)c(C(=O)c3c[nH]c4ncnc(C)c34)c2F)cc1F` [P-1036, N-[2,4-Difluoro-3-(4-methyl-7H-pyrrolo[2,3-d]pyrimidine-5-carbonyl)-phenyl]-3-fluoro-4-methoxy-benzenesulfonamide], the half-inhibitory concentration (IC50) against B-Raf [2] is over 0.1 µM. Moreover, in the data set with B-Raf [3], the “Biochemical activity ratio B/V600E” value was over 10 and the “Biochemical activity ratio B/C” value was over 10. At B-Raf V600E, the IC50 is under 0.1 µM and the “Biochemical activity ratio V600E/C” value was 0.1-10. At c-Raf-1, this compound yielded an IC50 of under 0.1 µM.
With `O=C(c1c(F)ccc(NS(=O)(=O)c2ccc(C(F)(F)F)cc2)c1F)c1c[nH]c2ncnc(OC3CCOCC3)c12` [P-1021, N-{2,4-Difluoro-3-[4-(tetrahydro-pyran-4-yloxy)-7H-pyrrolo[2,3-d]pyrimidine-5-carbonyl]-phenyl}-4-trifluoromethyl-benzenesulfonamide], the IC50 against B-Raf [2] is over 0.1 µM; on B-Raf V600E, over 0.1 µM; against c-Raf-1, under 0.1 µM. For the same compound, the “Biochemical activity ratio B/V600E” value in the data set on B-Raf [3] is 0.1-10. Besides, the “Biochemical activity ratio B/C” value with B-Raf [3] is over 10. Besides, the “Biochemical activity ratio V600E/C” value at B-Raf V600E is over 10.
Consider `O=C(c1c(F)ccc(NS(=O)(=O)c2ccc(C(F)(F)F)cc2)c1F)c1c[nH]c2nccc(C(F)(F)F)c12` [P-2016, N-[2,4-Difluoro-3-(4-trifluoromethyl-1H-pyrrolo[2,3-b]pyridine-3-carbonyl)-phenyl]-4-trifluoromethyl-benzenesulfonamide], for which the IC50 against B-Raf [2] was over 0.1 µM. For the same compound, in the data set with B-Raf [3], the “Biochemical activity ratio B/V600E” value was 0.1-10 and the “Biochemical activity ratio B/C” value is 0.1-10. For the same compound, on B-Raf V600E, the IC50 is over 0.1 µM and the “Biochemical activity ratio V600E/C” value was over 10. Further, in data set [1], the “turbidity threshold (L, M, H) 1.4” value is given as “L (low solubility if the threshold concentration is <31.3 μM)”; the “turbidity threshold (L, M, H) 4.5” value was “L (low solubility if the threshold concentration is <31.3 μM)”; the “turbidity threshold (L, M, H) 6.8” value is on record as “L (low solubility if the threshold concentration is <31.3 μM)”; the “turbidity threshold (L, M, H) 7.4” value is on record as “M (moderate solubility if the threshold concentration is 31.3 μM to 250 μM)”. The compound further displayed an IC50 against c-Raf-1 of under 0.1 µM.
Consider `CCCS(=O)(=O)Nc1ccc(F)c(C(=O)c2c[nH]c3ncnc(O)c23)c1F` [P-1022, Propane-1-sulfonic acid [2,4-difluoro-3-(4-hydroxy-7H-pyrrolo[2,3-d]pyrimidine-5-carbonyl)-phenyl]-amide], for which the IC50 at B-Raf [2] is over 0.1 µM. Also, in the data set with B-Raf [3], the “Biochemical activity ratio B/V600E” value was 0.1-10 and the “Biochemical activity ratio B/C” value was 0.1-10. Further, at B-Raf V600E, the IC50 was over 0.1 µM and the “Biochemical activity ratio V600E/C” value is listed as 0.1-10. At c-Raf-1, this compound returned an IC50 of under 0.1 µM.
The compound `O=C(c1c(F)ccc(NS(=O)(=O)c2ccc(C(F)(F)F)cc2)c1F)c1c[nH]c2ncnc(N3CCOCC3)c12` [P-1017, N-[2,4-Difluoro-3-(4-morpholin-4-yl-7H-pyrrolo[2,3-d]pyrimidine-5-carbonyl)-phenyl]-4-trifluoromethyl-benzenesulfonamide] came in with a half-inhibitory concentration (IC50) on B-Raf [2] of over 0.1 µM. Further, in the data set with B-Raf [3], the “Biochemical activity ratio B/V600E” value is listed as 0.1-10 and the “Biochemical activity ratio B/C” value was 0.1-10. For the same compound, on B-Raf V600E, the IC50 was over 0.1 µM and the “Biochemical activity ratio V600E/C” value is over 10. At c-Raf-1, this compound displayed an IC50 of over 0.1 µM.
Consider `CCc1ccc(S(=O)(=O)Nc2ccc(F)c(C(=O)c3c[nH]c4ncnc(C)c34)c2F)cc1` [P-1019, N-[2,4-Difluoro-3-(4-methyl-7H-pyrrolo[2,3-d]pyrimidine-5-carbonyl)-phenyl]-4-ethyl-benzenesulfonamide], for which the IC50 at B-Raf [2], on B-Raf V600E and at c-Raf-1 was over 0.1 µM throughout. Moreover, the “Biochemical activity ratio B/V600E” value in the data set on B-Raf [3] is on record as 0.1-10. For the same compound, in the data set with B-Raf [3], the “Biochemical activity ratio B/C” value is on record as 0.1-10. Besides, the “Biochemical activity ratio V600E/C” value at B-Raf V600E was 0.1-10.
`COc1ccc(S(=O)(=O)Nc2ccc(F)c(C(=O)c3c[nH]c4ncnc(OC)c34)c2F)cn1` [P-1018, 6-Methoxy-pyridine-3-sulfonic acid [2,4-difluoro-3-(4-methoxy-7H-pyrrolo[2,3-d]pyrimidine-5-carbonyl)-phenyl]-amide] gave an IC50 against B-Raf [2] of over 0.1 µM. For the same compound, in the data set on B-Raf [3], the “Biochemical activity ratio B/V600E” value is reported as over 10 and the “Biochemical activity ratio B/C” value is over 10. For the same compound, at B-Raf V600E, the IC50 was over 0.1 µM and the “Biochemical activity ratio V600E/C” value was 0.1-10. The IC50 against c-Raf-1 is over 0.1 µM.
Turning to `N#Cc1ncnc2[nH]cc(C(=O)c3c(F)ccc(NS(=O)(=O)c4ccc(C(F)(F)F)cc4)c3F)c12` [P-1023, N-[3-(4-Cyano-7H-pyrrolo[2,3-d]pyrimidine-5-carbonyl)-2,4-difluoro-phenyl]-4-trifluoromethyl-benzenesulfonamide], the IC50 against B-Raf [2] was over 0.1 µM. Moreover, in the data set with B-Raf [3], the “Biochemical activity ratio B/V600E” value is recorded as 0.1-10 and the “Biochemical activity ratio B/C” value is given as 0.1-10. Also, at B-Raf V600E, the IC50 was over 0.1 µM and the “Biochemical activity ratio V600E/C” value was over 10. The compound also gave an IC50 against c-Raf-1 of over 0.1 µM.
Consider `CCCS(=O)(=O)Nc1ccc(F)c(C(=O)c2c[nH]c3nccc(NC4CCOCC4)c23)c1F` [P-2013, Propane-1-sulfonic acid {2,4-difluoro-3-[4-(tetrahydro-pyran-4-ylamino)-1H-pyrrolo[2,3-b]pyridine-3-carbonyl]-phenyl}-amide], for which the IC50 at CYP2C19 is over 10000 nM. At B-Raf V600E, this compound came in with an IC50 of under 0.1 µM. Further, in data set [1], the “turbidity threshold (L, M, H) 1.4” value is given as “H (high solubility if the threshold concentration is >250 μm)”; the “turbidity threshold (L, M, H) 4.5” value is listed as “H (high solubility if the threshold concentration is >250 μm)”; the “turbidity threshold (L, M, H) 6.8” value is on record as “H (high solubility if the threshold concentration is >250 μm)”; the “turbidity threshold (L, M, H) 7.4” value is “H (high solubility if the threshold concentration is >250 μm)”. The compound further had an IC50 against c-Raf-1 of under 0.1 µM.
